The source of these data is patent US20240316008A1, “TREATMENT OF SYSTEMIC IMMUNE ACTIVATION SYNDROMES” (TRANQUIS THERAPEUTICS, INC., priority 2020, published 2024).

Each structure is given as a SMILES string. Counter-ions that a name gives are not always drawn.

The test system of experiment [1] is 12 human primary cell-based systems. Conditions: 5000 μM, comparator profile; cited from earlier work.
The test system of the next experiment is IL-6. Description: IL-6 secretion from LPS-stimulated BV2 cells (ELISA). The class given is cell-based, murine. Conditions: BV-2 cells, concentration-response. The procedure: [1] First, 100 μl of supernatant from cell plate was removed and transferred to a dilution plate, followed by centrifugation of the dilution plate at 216×g for 10 minutes to remove particulates. The dilution plate was then either assayed immediately or aliquots were taken and stored at ≤−20° C.; repeated freeze-thaw cycles should be avoided. Mouse IL-6 Standard (500 pg/mL) served as the high standard, and the Calibrator Diluent RD5T served as the zero standard at 0 pg/ml. Assay Diluent RD1-14 (50 μl) was then added to the center of each well and mixed before and during its use. Then, 50 μl of standard, control, or sample was added to the center of each well, and covered with adhesive strip. The plate was then mixed for 1 minute and incubated for 2 hours at room temperature. Each well was then aspirated and washed by filling each well with wash buffer (400 ul) five times. After the last wash, the remaining Wash Buffer was removed by aspirating or decanting. Mouse IL-6 conjugate (100 ul) was then added to each well, covered with adhesive strip, incubated for 2 hours at room temperature, and washed and/or aspirated five times.
Substrate solution (100 ul) was then added to each well, incubated in the dark for 30 minutes at room temperature, followed by addition of 100 ul of Stop Solution and mixed. The optical density of each well was determined within 30 minutes by using a microplate reader set to 450 nm.
(In general: In an ELISA, binding on a coated surface is turned into a signal by an enzyme label.)

A further experiment deals with TNFα. Kind of experiment: TNFα release by LPS-stimulated BV2 cells (ELISA). Conditions: BV-2 cells, ELISA, concentration-response. The class given is cell-based, murine. Here is the method: First, 100 μl of supernatant was removed from Cell Plate and transferred to a Dilution Plate, which was then centrifuged at 216×g for 10 minutes to remove particulates. The dilution plate was either assayed immediately or aliquots were taken and stored at stored at ≤−20° C.; repeated freeze-thaw cycles were avoided.
Next, a standard curve was prepared by first pipetting 900 ul of Calibrator Diluent RD5K into the 700 pg/mL tube, followed by 200 μl of the appropriate calibrator diluent in the remaining tubes. The stock solution was used to produce a dilution. The resulting tubes were then thoroughly mixed. The Mouse TNFα Standard (700 pg/mL) served as the high standard, and the Calibrator Diluent RD5T served as the zero standard at 0 pg/ml.
Assay Diluent RD1-63 (50 ul) was then added to the center of each well and mixed before and during its use. Then, 50 ul of either standard, control, or sample was added to the center of each well, and covered with adhesive strip. The plate was then mixed for 1 minute and incubated for 2 hours at room temperature.
Each well was then aspirated and washed by filling each well with Wash Buffer (400 ul) five times. After the last wash, the remaining Wash Buffer was removed by aspirating or decanting. TNFα […] conjugate (100 ul) was then added to each well, covered with adhesive strip, incubated for 2 hours at room temperature, and washed and/or aspirated five times.
Substrate solution (100 ul) was then added to each well, incubated in the dark for 30 minutes at room temperature, followed by addition of 100 μl of Stop Solution and mixed. The optical density of each well was determined within 30 minutes by using a microplate reader set to 450 nm.
Plates were read on a Spectrostar Nano machine with built-in MARS data analysis at […].
For TNFα ELISA, the BV-2 cells were very responsive to low concentrations of LPS. A concentration range of 0.1 ng/ml to 1,000 ng/ml was tested. 0.3 ng/ml LPS produced enough TNFα release (8-10 fold above background) from these cells after 22 hours stimulation without saturating the linear range of the ELISA detection system. If higher LPS concentrations are used for stimulating BV-2 cells, a […] is advised to stay within the linear range of the detection system. The current TNFα protocol uses 10,000 cells per well in 96 well plate. A cell count titration can optimize S/B ratio. Miniaturization from 96 well to 384 well is also feasible with this assay.
The TNFα ELISA assay is described in Example 5. The IL-6 assay is described below.

For another experiment, the system named is sepsis. Description: Mouse model of sepsis / hyperinflammation (virus followed by LPS, as described in Wang). Conditions: mice, intravenous, various doses.
Another experiment concerns ALS. Conditions: transgenic mouse model of ALS; cited from earlier work.

Protocol for sepsis: Briefly, mice are anesthetized with a ketamine/xylazine mixture. A virus, such as a coronavirus, influenza virus, rhinovirus, respiratory syncytial virus, metapneumovirus, adenovirus, or a boca virus, is administered. The virus may be administered intranasally dropwise.
Next, LPS diluted in a buffer, such as PBS, is injected intraperitoneally at specific doses.
To provide comparators for assessing the effects of TQS-168 and its analogs, groups of positive control mice are treated with one or more antibodies against pro-inflammatory cytokines of interest: anti-NK1.1 antibody (PK136; Bio X Cell) diluted in PBS is injected at 100 μg per injection (100 μL) retro-orbitally concurrently with each challenge; anti-IFNγ antibody (XMG1.2, Bio X Cell) is diluted in PBS and injected at 500 μg per injection (100 μL) retro-orbitally concurrently with each challenge; anti-IL6R (15A7.10 mg/kg; Bio X Cell), anti-TNFα (XT3.11, 500 μg per injection; Bio X Cell), anti-IFNαR (MAR1-5A3, 10 mg/kg; Bio X Cell), and anti-IL1β (B122, 500 μg per injection; Bio X Cell) are injected retro-orbitally. For a negative control, isotype antibody is injected retro-orbitally.
The pro-inflammatory cytokines can be measured using the ELISA assay described in Example 1.

Take `CN(C)C(=N)N=C(N)N` [metformin, metformin hydrochloride]: the “T-cell proliferation, IgG, TNFα, and IL-8” value in experiment [1] is “inhibit”.
For `CC(C)(C)c1ccc(-c2nc3cc(C(F)(F)F)ccc3[nH]2)cc1` [TQS-236], the “LPS-stimulated IL-6 secretion” value in the experiment with IL-6 was “decrease”. Further, the “LPS-stimulated TNFα secretion” value with TNFα was “decrease”.
Regarding `CC(C)(C)c1ccc(-c2nc3c(F)cc(F)cc3[nH]2)cc1` [TQS-235], in the experiment on sepsis, the “circulating concentrations of pro-inflammatory cytokines” value (“circulating concentrations” below) was “effective in reducing” and the hyperinflammatory symptoms entry is reported as “effective in reducing”. Also, the “LPS-stimulated IL-6 secretion” value with IL-6 is on record as “decrease”. For the same compound, in the experiment with TNFα, the “LPS-stimulated TNFα secretion” value was “decrease”.
For `[2H]c1c([2H])c([2H])c2[nH]c(-c3ccc(C(C)(C)C)cc3)nc2c1[2H]` [TQS-239], in the experiment on IL-6, the “LPS-stimulated IL-6 secretion” value is “decrease”. The “LPS-stimulated TNFα secretion” value in the experiment on TNFα is “decrease”.
Consider `CC(C)(C)c1cccc(-c2nc3c(F)cc(F)cc3[nH]2)c1` [TQS-237], for which, in the experiment with sepsis, the “circulating concentrations” value is listed as “effective in reducing” and the hyperinflammatory symptoms result is recorded as “effective in reducing”. In addition, in the experiment on IL-6, the “LPS-stimulated IL-6 secretion” value is “decrease”. Besides, the “LPS-stimulated TNFα secretion” value with TNFα was “decrease”.
For the compound `CC(C)(C)c1ccc(-c2nc3c(F)c(F)c(F)cc3[nH]2)cc1` [TQS-240], in the experiment with sepsis, the “circulating concentrations” value is recorded as “effective in reducing” and the hyperinflammatory symptoms result was “effective in reducing”. Moreover, the “LPS-stimulated IL-6 secretion” value with IL-6 is “decrease”. In the experiment on TNFα, the “LPS-stimulated TNFα secretion” value is given as “decrease”.
With `CC(C)(C)c1ccc(-c2nc3ccncc3[nH]2)cc1` [TQS-234], in the experiment on IL-6, the “LPS-stimulated IL-6 secretion” value is recorded as “decrease”. In addition, in the experiment with TNFα, the “LPS-stimulated TNFα secretion” value is on record as “decrease”.
With `CC(=O)N(O)CCCCCNC(=O)CCC(=O)N(O)CCCCCNC(=O)CCC(=O)N(O)CCCCCN` [Deferoxamine, deferoxamine mesylate], in the experiment on ALS, the disease onset entry is “delay” and the lifespan result is “extend”.
As to `CC(C)(C)c1ccc(-c2cn3ccccc3n2)cc1` [TQS-238], the “LPS-stimulated IL-6 secretion” value with IL-6 is reported as “decrease”. Moreover, in the experiment with TNFα, the “LPS-stimulated TNFα secretion” value is “decrease”.
